# Results reported in ChEMBL document CHEMBL5236619, “Design and Optimization of 1H-1,2,3-Triazole-4-carboxamides as Novel, Potent, and Selective Inverse Agonists and Antagonists of PXR” (J Med Chem, 2022).
# What was measured:
# [1] = biological target: T1, Nuclear receptor subfamily 1 group I member 2 (Homo sapiens, UniProt O75469); assay: Agonist activity at human PXR in human HepG2 cells co-expressing luciferase gene under control of CYP3A4 promoter assessed as transcriptional activation at 30 uM incubated for 24 hrs by luminescence based analysis; format: cell-based; settings: hepg2, 24 h
# T1 sequence (O75469 whole entry): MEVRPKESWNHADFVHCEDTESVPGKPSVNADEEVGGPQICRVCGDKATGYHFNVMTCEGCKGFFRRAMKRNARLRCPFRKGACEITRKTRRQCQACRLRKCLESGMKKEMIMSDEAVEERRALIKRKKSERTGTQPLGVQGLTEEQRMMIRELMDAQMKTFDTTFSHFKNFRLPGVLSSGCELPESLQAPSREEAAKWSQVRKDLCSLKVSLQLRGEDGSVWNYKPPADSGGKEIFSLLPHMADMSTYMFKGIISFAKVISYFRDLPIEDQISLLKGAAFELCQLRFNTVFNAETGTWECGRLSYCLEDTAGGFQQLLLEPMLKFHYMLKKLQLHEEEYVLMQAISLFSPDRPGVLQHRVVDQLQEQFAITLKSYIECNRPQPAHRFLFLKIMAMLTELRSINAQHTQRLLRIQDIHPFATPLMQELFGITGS
# [2] = biological target: T2, PXR (NR1I2) (Homo sapiens, UniProt O75469); assay: Antagonist activity at human PXR in human HepG2 cells co-expressing luciferase gene under control of CYP3A4 promoter assessed as inhibition in rifampicin-induced receptor activation at 10 uM incubated for 24 hrs by luminescence based analysis relative to control; format: cell-based
# T2 sequence (O75469 whole entry): T1 sequence (O75469 whole entry)
# [3] = biological target: T1, Nuclear receptor subfamily 1 group I member 2; assay: Inverse agonist activity at human PXR in human HepG2 cells co-expressing luciferase gene under control of CYP3A4 promoter assessed as inhibition of receptor basal activity incubated for 24 hrs by luminescence based analysis; format: cell-based
# [4] = biological target: T3, PXR (NR1I2) ligand binding domain (Homo sapiens, UniProt O75469); assay: Inhibition of BODIPY FL vindoline binding to recombinant human GST-tagged PXR LBD (111 to 434 residues) expressed in baculovirus infected insect cells at 10 uM incubated for 1 mins under shaking condition followed by 60 mins under dark condition by TR-FRET assay relative to control; settings: probe BODIPY FL vindoline, time 61 min
# T3 sequence (O75469 whole entry): T1 sequence (O75469 whole entry)
# [5] = biological target: T1, Nuclear receptor subfamily 1 group I member 2; assay: Antagonist activity at human PXR in human HepG2 cells co-expressing luciferase gene under control of CYP3A4 promoter assessed as inhibition in rifampicin-induced receptor activation at 30 uM incubated for 24 hrs by luminescence based analysis; format: cell-based; settings: hepg2, 24 h
# [6] = biological target: T2, PXR (NR1I2); assay: Inverse agonist activity at human PXR in human HepG2 cells co-expressing luciferase gene under control of CYP3A4 promoter assessed as inhibition in receptor basal activity at 10 uM incubated for 24 hrs by luminescence based analysis relative to control; format: cell-based
# [7] = biological target: T1, Nuclear receptor subfamily 1 group I member 2; assay: Inhibition of BODIPY FL vindoline binding to recombinant human GST-tagged PXR LBD (111 to 434 residues) expressed in baculovirus infected insect cells incubated for 1 mins under shaking condition followed by 60 mins under dark condition by TR-FRET assay; settings: human, 1.017 h; time 61 min
# [8] = biological target: T1, Nuclear receptor subfamily 1 group I member 2; assay: Inverse agonist activity at human PXR in human HepG2 cells co-expressing luciferase gene under control of CYP3A4 promoter assessed as inhibition in receptor basal activity at 30 uM incubated for 24 hrs by luminescence based analysis; settings: hepg2, 24 h
# [9] = biological target: T1, Nuclear receptor subfamily 1 group I member 2; assay: Agonist activity at human PXR in human HepG2 cells co-expressing luciferase gene under control of CYP3A4 promoter assessed as transcriptional activation incubated for 24 hrs by luminescence based analysis
# [10] = biological target: T1, Nuclear receptor subfamily 1 group I member 2; assay: Agonist activity at human PXR in human HepG2 cells co-expressing luciferase gene under control of CYP3A4 promoter assessed as transcriptional activation at 10 uM incubated for 24 hrs by luminescence based analysis relative to control
SMILES,Activity [1],"inhibition at 1.017 h, 10 µM [4] [%]","inhibition at 24 h, 10 µM [6] [%]",other results
CNc1cc(NC(=O)c2nnn(-c3cc(OC)ccc3OC)c2C)cc(C(C)(C)C)c1,Not Active,–,–,"inhibition at 24 h, 10 µM [2]: 109%"
COc1ccc(OC)c(-n2nnc(C(=O)Nc3cc(C(C)(C)C)ccc3OCCN(C)C)c2C)c1,Not Active,87,–,IC50 [3]: 1800 nM
COc1ccc(OC)c(-n2nnc(C(=O)Nc3cccc(N4CCCCC4)c3)c2C)c1,Not Active,50,36,inhibition (INH) [5]: Not Active
CCCCN(CCCC)c1cc(NC(=O)c2nnn(-c3cc(OC)ccc3OC)c2C)cc(C(C)(C)C)c1,Not Active,–,–,"inhibition at 24 h, 10 µM [2]: 82%"
CCCCOc1ccc(C(C)(C)C)cc1NC(=O)c1nnn(-c2cc(OC)ccc2OC)c1C,Not Active,90,89,–
CCC[C@@H](C)Oc1ccc(C(C)(C)C)cc1NC(=O)c1nnn(-c2cc(OC)ccc2OC)c1C,Not Active,81,91,–
CCOc1ccc(C(C)(C)C)cc1NC(=O)c1nnn(-c2cc(OC)ccc2OC)c1C,Not Active,73,118,–
COc1ccc(OC)c(-n2nnc(C(=O)Nc3cc(C(C)(C)C)ccc3OCCN3CCOCC3)c2C)c1,Not Active,68,81,IC50 [3]: 1400 nM
COc1ccc(OC)c(-n2nnc(C(=O)Nc3ccccc3)c2C)c1,–,–,–,"inhibition (INH) [7]: Not Active; INH [8]: Not Active; EC50 [9]: 25000 nM; inhibition (INH) [5]: Not Active; activity at 24 h, 10 µM [10]: 33%"
